{"source": "patent US4084006A", "about": "“Method of using dialkylphenols an antiviral agents” (priority 1977, dated 1978); for Dead animals: tested at 0.001 ppm; for Ill animals: tested at 0.001 ppm; for Well animals: tested at 0.001 ppm; for new born rats, all appeared healthy: tested at 0.001 ppm; for total number of rats in colony: tested at 0.001 ppm", "key": {"[1]": {"tested_on": "chronic respiratory disease (CRD)", "assay": "Treatment of chronic respiratory disease (CRD) in spontaneously hypertensive (SH) rats; for Dead animals: tested at 0.001 ppm; for Ill animals: tested at 0.001 ppm; for Total number of rats: tested at 0.001 ppm; for Well animals: tested at 0.001 ppm; for animals showing a trace of secretions around their necks: tested at 0.001 ppm; for rats alive in the treated group: tested at 0.001 ppm", "format": "in vivo, rat (SH)", "experimental": "Treatment of Chronic Respiratory Disease (CRD) in laboratory rats: chronic respiratory disease symptoms include coughing and wheezing accompanied by nasal secretions.\n(§1) One-half of a colony of spontaneously hypertensive (SH) rats was treated with 2,4-dimethylphenol in their drinking water at a concentration of one part per billion. The other half of this colony was given only tap water, and both groups observed for 76 days. The second experiment was with a highly inbred strain (GM) of rats that were about to expire, because of chronic respiratory infection. […] Both groups, the SH rats and the GM rats, were not breeding because of their infections and were in seriously poor health.\nThey were only 42 SH rats left in the colony. They were divided into two groups of 21 rats each. Approximately one-half the sick rats were selected for each group. […] This was best observed as a brown secretion from the nose and wiped around the neck by the rat's front paws. The experimental group was treated continuously with one part per billion (1 PPB) of 2,4-dimethylphenol in their drinking fluid. Certain of these rats were so ill that they were near death when the experiment was started and they died in spite of treatment."}, "[2]": {"tested_on": "Mycoplasma pulmonis (ATCC 19612)", "assay": "Serum antibodies for Mycoplasma in rats", "format": "in vivo, Mycoplasma pulmonis (host: rat)", "conditions": "one part per million; two of 19 infected rats in all groups, the other a control", "source_text": "Attempts were made to test the effect of infecting rats with Mycoplasma pulmonis (ATCC 19612) so that they could transmit the disease to their cage mates and, also allowed them to breed. This was also done to test if the mothers would pass the infection on to their litters. These rats were purchased from a laboratory in Indianapolis, Indiana and they were divided into 6 groups with male animals in each group. In the 5 experimental groups, a total of 15 female rats out of 30, and in the control group 4 female rats out of 8 were infected intranasally with Mycoplasma pulmonis (ATCC 19612). There were two male rats per experimental group and 3 for the controls totaling 13 male rats, and none of these were infected with M. pulmonis.\nThe experimental groups (8 rats each) and control group were treated as follows:\nAll rats were fed ad libitum rat chow, and their cages were cleaned 5-6 times weekly. For the 5 experimental groups, the 2,4 DMP was dissolved in distilled water used for their drinking fluid while the control only received distilled water. There were times when the rats spilled excessive amounts of their drinking water and this caused a certain amount of the phenol to be evaporated from these cages, particularly those groups receiving the higher concentrations of the phenol. […]"}, "[3]": {"tested_on": "chronic respiratory disease (CRD)", "assay": "Treatment of chronic respiratory disease in inbred GM rats", "format": "in vivo, rat (GM)", "experimental": "as §1\nThe second experiment was run concurrently with Example 36, but this time the animals were the highly inbred GM strain. A number of these animals were ill with chronic respiratory disease and unable to breed. These rats were randomly divided into two groups of 26 each. The experimental group received 1 PPB of the 2,4-dimethylphenol in their drinking water and the control group received only tap water."}, "[4]": {"conditions": "day 14, 1 PPB in drinking water, SH rats"}, "[5]": {"conditions": "day 22, 1 PPB in drinking water, SH rats"}, "[6]": {"conditions": "day 29, 1 PPB in drinking water, SH rats"}, "[7]": {"conditions": "day 36, 1 PPB in drinking water, SH rats"}, "[8]": {"conditions": "day 43, 1 PPB in drinking water, SH rats"}, "[9]": {"conditions": "day 58, 1 PPB in drinking water, GM rats"}, "[10]": {"conditions": "day 66, 1 PPB in drinking water, GM rats"}, "[11]": {"conditions": "day 73, 1 PPB in drinking water, GM rats"}, "[12]": {"conditions": "day 80, 1 PPB in drinking water, GM rats"}, "[13]": {"conditions": "over 2.5 years, 1 PPB in drinking fluid, combined GM groups"}}}
{"smiles": "Cc1ccc(O)c(C)c1", "note": "[2,4-dimethylphenol]", "values": [{"measurement": "Dead animals", "setting": "[1]; [4]", "result": 1}, {"measurement": "Ill animals", "setting": "[1]; [4]", "result": 8}, {"measurement": "Well animals", "setting": "[1]; [4]", "result": 12}, {"measurement": "Total number of rats", "setting": "[1]; day 14, 1 PPB in drinking water, SH rats, 21 at start", "result": 21}, {"measurement": "Dead animals", "setting": "[1]; [5]", "result": 1}, {"measurement": "Ill animals", "setting": "[1]; [5]", "result": 7}, {"measurement": "Well animals", "setting": "[1]; [5]", "result": 12}, {"measurement": "Total number of rats", "setting": "[1]; day 22, 1 PPB in drinking water, SH rats, 21 at start", "result": 20}, {"measurement": "Dead animals", "setting": "[1]; [6]", "result": 2}, {"measurement": "Ill animals", "setting": "[1]; [6]", "result": 4}, {"measurement": "Well animals", "setting": "[1]; [6]", "result": 13}, {"measurement": "Total number of rats", "setting": "[1]; day 29, 1 PPB in drinking water, SH rats, 21 at start", "result": 19}, {"measurement": "Ill animals", "setting": "[1]; [7]", "result": 5}, {"measurement": "Well animals", "setting": "[1]; [7]", "result": 12}, {"measurement": "Total number of rats", "setting": "[1]; day 36, 1 PPB in drinking water, SH rats, 21 at start", "result": 17}, {"measurement": "Ill animals", "setting": "[1]; [8]", "result": 5}, {"measurement": "Well animals", "setting": "[1]; [8]", "result": 12}, {"measurement": "Total number of rats", "setting": "[1]; day 43, 1 PPB in drinking water, SH rats, 21 at start", "result": 17}, {"measurement": "Well animals", "setting": "[1]; day 76, 1 PPB in drinking water, SH rats", "result": 12}, {"measurement": "Total number of rats", "setting": "[1]; day 76, 1 PPB in drinking water, SH rats, 21 at start", "result": 17}, {"measurement": "Ill animals", "setting": "[1]; day 76, 1 PPB in drinking water, SH rats, minimal infection", "result": 5}, {"measurement": "infection in the five ill rats", "setting": "[1]; day 76, visual observation, 1 PPB, SH rats", "result": "minimal infection from visual observation"}, {"measurement": "rats alive in the treated group", "setting": "[1]; end of 76 days, 1 PPB in drinking water, SH rats, 21 at start", "result": 17}, {"measurement": "animals showing a trace of secretions around their necks", "setting": "[1]; end of 76 days, of 17 rats alive, 1 PPB, SH rats", "result": 5}, {"measurement": "breeding and colony health", "setting": "[1]; more than 2 years, 1 PPB in drinking fluid, combined SH groups", "result": "These animals began to breed, and the colony is now healthy"}, {"measurement": "M. pulmonis infected rats with detectable Mycoplasma antibody titers", "setting": "[2]", "result": "One"}, {"measurement": "new born rats, all appeared healthy", "setting": "[3]; by day 150, 1 PPB in drinking water, GM rats", "result": 31}, {"measurement": "breeding of experimental group", "setting": "[3]; by day 150, 1 PPB, GM rats, control group did not start breeding", "result": "began to breed"}, {"measurement": "Ill animals", "setting": "[3]; [9]", "result": 3}, {"measurement": "Well animals", "setting": "[3]; [9]", "result": 23}, {"measurement": "Total number of rats", "setting": "[3]; day 58, 1 PPB in drinking water, GM rats, 26 at start", "result": 26}, {"measurement": "Ill animals", "setting": "[3]; [10]", "result": 3}, {"measurement": "Well animals", "setting": "[3]; [10]", "result": 23}, {"measurement": "Total number of rats", "setting": "[3]; day 66, 1 PPB in drinking water, GM rats, 26 at start", "result": 26}, {"measurement": "Ill animals", "setting": "[3]; [11]", "result": 2}, {"measurement": "Well animals", "setting": "[3]; [11]", "result": 24}, {"measurement": "Total number of rats", "setting": "[3]; day 73, 1 PPB in drinking water, GM rats, 26 at start", "result": 26}, {"measurement": "Dead animals", "setting": "[3]; [12]", "result": 1}, {"measurement": "Ill animals", "setting": "[3]; [12]", "result": 0}, {"measurement": "Well animals", "setting": "[3]; [12]", "result": 25}, {"measurement": "Total number of rats", "setting": "[3]; day 80, 1 PPB in drinking water, GM rats, 26 at start", "result": 25}, {"measurement": "Well animals", "setting": "[3]; day 150, 1 PPB in drinking water, GM rats", "result": 53}, {"measurement": "Total number of rats", "setting": "[3]; day 150, 1 PPB in drinking water, GM rats, includes 31 new born", "result": 56}, {"measurement": "Ill animals", "setting": "[3]; day 150, 1 PPB in drinking water, GM rats, only a trace of secretion", "result": 3}, {"measurement": "symptoms of the three rats listed as ill", "setting": "[3]; day 150, 1 PPB, GM rats", "result": "only a trace of secretion"}, {"measurement": "state of colony", "setting": "[3]; [13]", "result": "the colony has continued to thrive"}, {"measurement": "total number of rats in colony", "setting": "[3]; [13]", "result": "about 400"}]}
